Experimental data published in patent US20090227671A1, “Prevention and treatment of atherosclerosis with lithospermate B” (Industry-Academic Cooperation Foundation, priority 2005, published 2009).

Key:
ERK1/2 = experiment: Western blot of ERK1/2 phosphorylation in VSMC induced by PDGF-BB; format: cell-based, Sprague-Dawley rats
Experimental: (§1) VSMC was washed with PBS and then dissolved in lysis buffer (25 mM Tris HCl, pH 7.4, 25 mM NaCl, 25 mM NaF, 25 mM sodium pyrophosphate, 1 mM sodium vanadate, 2.5 mM EDTA, 2.5 mM EGTA, 0.05% (wt/vol) Triton X-100, 0.5% (wt/vol) SDS, 0.5% (wt/vol) deoxycholate, 0.5% (wt/vol) Nonidet P-40, […], and 1 mM PMSF). The cells were collected and centrifuged at 13,000 rpm for 15 min and the protein concentration of the resulting supernatant was measured by Bradford assay. The proteins were denatured and were subjected to SDS-PAGE and then blotted onto nitrocellulose membranes. The membranes were placed in 5% (w/v) non-fat dry milk in TBS with 0.1% Tween20 (TBS-T) and then placed at room temperature for 3 hrs. The blots were placed at 4° C. along with anti-ERK1/2 or anti-Akt antibodies (Cell signaling Technologh, Berely. Mass., USA) for 16 hrs. The membranes were washed 4 times with TBS-T, added with anti-rabbit IgG antibody conjugated with horseradish peroxidase (1:2,000 diluent) and then placed at room temperature for 1 hr. The immunoreactive bands detected by ECL reagents were developed by Hyperfilm-ECL (Amersham Life Science, Little Chalfont, UK). The bands showing positive responses were quantitated by densitometry and then compared with that of control.
(§2) In FIG. 1B, it is shown that both U0126 (20 μM) and LY294002 (40 μM) inhibited activities of LDH and MTT induced by PDGF-BB. As a way to investigate the signal transduction pathway involved in VSMC proliferation induced by PDGF-BB, an experiment was conducted to examine whether PDGF-BB activates a relatively lower signal transduction pathway such as ERK1/2 and Akt.

[1] = test system: common carotid arteries after balloon injury; experiment: Neointimal hyperplasia in balloon-injured carotid artery animal model; format: in vivo, Sprague-Dawley rats; conditions: LAB 10 mg/kg/day from 2 days prior to PTA, compared with placebo
Text: Two French Forgarty embolectomy catheters were inserted into white male Sprague-Dawley (300 g) through external carotid arteries, and blood vessels were intentionally damaged by moving catheters, which were swollen by adding a physiological saline solution, 3 times vertically within the common carotid thereby expanding blood vessels while shedding off the endothelial cells. A total of 30 rats were divided into 3 groups (10 rats/group) and used in this experiment: group 1 was not treated; group 2 was damaged with their blood vessels; and group 3 was treated with LAB and then damaged with their blood vessels. LAB (10 mg/kg/day) was injected intravenously for a period of 30 days (i.e., from 2 days prior to the blood vessel damage to 28 days after the blood vessel damage). The rats were sacrificed on the 28th day after the blood vessel damage by ablating carotid artery and it was fixed with 4% formaldehyde and then dyed with hematoxylineosin. The mid parts of the damaged blood vessel were cut into 2-4 parts and analyzed via computerized morphometry (SCN Image). […]
White Sprague-Dawley rats were damaged by using percutaneous transluminal angioplastyas (‘PTA’) as stated above. […] On the 2oth day after the surgery the rats were sacrificed and the Intima-Media Thickness (‘IMT’) was measured.

[2] = test system: intracellular reactive oxygen species; experiment: Intracellular reactive oxygen species in VSMC (DCF fluorescence); format: cell-based, Sprague-Dawley rats; conditions: LAB pretreatment 1 hr
Experimental: The amount of reactive oxygen species in cells was measured as described in the previous report [Hamaguchi A, Kim S, Izumi Y, et al. Contribution of extracellular signal-regulated kinase to angiotensin II-induced transforming growth factor-beta1 expression in vascular smooth muscle cells. Hypertension. July 1999; 34(1):126-131]. VSMC was cultured in a culture medium without serum for 24 hrs to stop cell proliferation and then pretreated with LAB with various concentrations of 1, 5, 10, 20, 30 μM for 1 hr. The cells were treated with either 10 ng/mL of PDGF-BB for 10 min or with 100 μM H2O2 for 1 min and then cultured in the presence of 5-(and-6)-chloromethyl-2′,7′-dichlorohydrofluorescein diacetate(CM-H2DCF-DA: Molecular Probes Inc., Eurogene, Oreg., USA) in the dark room for 10 min and cultured cells and generation of reactive oxygen species were observed by using fluorescent microscope.
First, the amount of intracellular reactive oxygen species generated by PDGF-BB was measured by using peroxide-sensitive fluorophore DCF. As shown in FIG. 3A (B-1), the amount of intracellular reactive oxygen species generated by PDGF-BB evaluated with DCF fluorescence was 2.7 times greater. […] In this experiment, LAB was treated with PDGF-BB for 10 min. When LAB was pretreated, the amount of DCF fluorescence was decreased as compared to when it was treated only with PDGF-BB [FIG. 3A(A)]. […] Further, LAB decreased the activity of hydrogen peroxide, which increases the generation of intracellular reactive oxygen species, in proportion to its concentration (FIG. 3A(C)).

Akt = experiment: Western blot of Akt phosphorylation in VSMC induced by PDGF-BB; format: cell-based, Sprague-Dawley rats
Experimental: as §1, §2

[3] = test system: vascular smooth muscle cells; experiment: VSMC migration induced by PDGF-BB (modified Boyden chamber); format: cell-based, Sprague-Dawley rats; conditions: pretreated with LAB, various concentrations; 16 hrs
Experimental: The migration of VSMC with 8 μm of pores was measured by using modified Boyden chamber method [Brown C, Pan X, Hassid A. Nitric oxide and C-type atrial natriuretic peptide stimulate primary aortic smooth muscle cell migration via a cGMP-dependent mechanism: relationship to microfilament dissociation and altered cell morphology. Circ Res. Apr. 2 1999; 84(6):655-667], which utilizes collagen-coated transwell tissue culture inserts consisting of polycarbonate membrane. 3.0×10^6 cells/mL of the above vascular smooth muscle cells were allowed to float in a culture medium without serum, treated with LAB with various concentrations and then cultured at 37° C. for 30 min. Then, the cells were treated with either 0.5 mL DMEM without serum or 0.5 mL DMEM without serum along with PDGF-BB 10 ng/mL and then placed in the lower part of a chamber. 100 μL of the folating materials of the above cells (final 3.0×10^5 cells/well) was added to the upper part of the chamber and cultured at 37° C. for 16 hrs. The cells were then fixed, dyed with hematoxylin, and filters were dried and developed.
It is known that […] plays an important role in proliferation of VSMC as well as development of atherosclerosis. To investigate whether LAB decreases the migration of VSMC induced by PDGF-BB, an experiment was performed as follows by using the aforementioned modified Boyden chamber method.

Compound: O=C(/C=C/c1ccc(O)c2c1[C@H](C(=O)O[C@H](Cc1ccc(O)c(O)c1)C(=O)[O-])[C@@H](c1ccc(O)c(O)c1)O2)O[C@H](Cc1ccc(O)c(O)c1)C(=O)[O-].[Mg+2] [LAB, lithospermate B]
- decrease of ERK1/2 phosphorylation (ERK1/2; 30 μM LAB, 20 mM NAC, 1 h, then PDGF-BB 10 min, FIG. 5C): 0.8 fold
- phosphorylation of ERK1/2 due to PDGF-BB (ERK1/2; LAB 1, 5, 10, 20, 30 μM for 1 h, PDGF-BB 10 min, FIG. 5B): inhibits
- most effective concentration, inhibition of ERK1/2 phosphorylation (ERK1/2; PDGF-BB 10 ng/mL): 30 µM
- increase in Intima-Media Thickness (IMT) [1]: much low
- amount of intracellular reactive oxygen species generated by PDGF-BB ([2]; 10 ng/mL PDGF-BB 10 min): decreased in proportion to the concentration
- intracellular reactive oxygen species induced by hydrogen peroxide ([2]; 100 μM H2O2 1 min): decreased
- decrease of Akt phosphorylation (Akt; 30 μM LAB, 20 mM NAC, 40 μM LY294002, 1 h, then PDGF-BB 10 min, FIG. 4C): 8 folds
- phosphorylation of Akt due to PDGF-BB (Akt; LAB 1, 5, 10, 20, 30 μM for 1 h, PDGF-BB 10 min, FIG. 4B): inhibits
- most effective concentration, inhibition of Akt phosphorylation (Akt; PDGF-BB 10 ng/mL): 30 µM
- migration of VSMC induced by PDGF-BB [3]: decreased in proportion to the concentration
